# Measured values reported in patent US20060106085A1, “Methods and compositions using PDE4 modulators for treatment and management of central nervous system injury” (priority 2004, published 2006).
# Experiments:
# [1] = test system: TNF-α production from human PBMC; experiment: IL-1β-induced TNF-α production from human PBMC; type: cell-based; details: 50 ng/ml recombinant human IL-1β, 18 hours
# Protocol: During the course of inflammatory diseases, TNF-α production is often stimulated by the cytokine 1L-1β rather than by bacterially derived LPS. 3-(3,4-Dimethoxy-phenyl)-3-(1-oxo-1,3-dihydro-isoindol-2-yl)-propionamide was tested for the ability to inhibit IL-1β-induced TNF-α production from human PBMC as described above for LPS-induced TNF-α production, except that the PBMC are isolated from source leukocyte units (Sera-Tec Biologicals, North Brunswick, N.J., USA) by centrifugation on Ficoll-Paque Plus (Amersham Pharmacia, Piscataway, N.J., USA), plated in 96-well tissue culture plates at 3×10^5 cells/well in RPMI-1640 medium (BioWhittaker, Walkersville, Md., USA) containing 10% heat-inactivated fetal bovine serum (Hyclone), 2 mM L-glutamine, 100 U/ml penicillin, and […] (complete medium), pretreated with compounds at 10, 2, 0.4, 0.08, 0.016, 0.0032, 0.00064, and 0 μM in duplicate at a final DMSO concentration of 0.1% at 37° C. in a humidified incubator at 5% CO2 for 1 hour, then stimulated with 50 ng/ml recombinant human IL-1β (Endogen) for 18 hours.
# [2] = test system: TNF-α production from human PBMC; experiment: LPS-induced TNF-α production from human PBMC; type: cell-based; details: LPS 100 ng/ml, compound added 1 hour before LPS, 18-20 hours, ELISA
# Protocol: Inhibition of TNF-α production following LPS-stimulation of human PBMC and human whole blood by 3-(3,4-dimethoxy-phenyl)-3-(1-oxo-1,3-dihydro-isoindol-2-yl)-propionamide is investigated in vitro (Muller et al., Bioorg. Med. Chem. Lett. 9:1625-1630, 1999). The IC50's of 3-(3,4-dimethoxy-phenyl)-3-(1-oxo-1,3-dihydro-isoindol-2-yl)-propionamide for inhibiting production of TNF-α following LPS-stimulation of PBMC and human whole blood is measured.
# For example, 3-(3,4-dimethoxy-phenyl)-3-(1-oxo-1,3-dihydro-isoindol-2-yl)-propionamide was tested for the ability to inhibit LPS-induced TNF-α production from human PBMC as previously described (Muller et al. 1996, J. Med. Chem. 39:3238). PBMC from normal donors were obtained by Ficoll Hypaque (Pharmacia, Piscataway, N.J., USA) density centrifugation. Cells were cultured in RPMI (Life Technologies, Grand Island, N.Y., USA) supplemented with 10% AB±human serum (Gemini Bio-products, Woodland, Calif., USA), 2 mM L-glutamine, 100 U/ml penicillin, and 100 μg/ml streptomycin (Life Technologies).
# PBMC (2×10^5 cells) were plated in 96-well flat-bottom Costar tissue culture plates (Corning, N.Y., USA) in triplicate. Cells were stimulated with LPS (Sigma, St. Louis, Mo., USA) at 100 ng/ml in the absence or presence of compounds. […]
# [3] = Cardiovascular and respiratory function in anesthetized dogs; type: in vivo; details: anesthetized Beagle dogs, 400, 800, and 1,200 mg/kg/day ascending doses, infusion through the jugular vein, compared to vehicle control
# Protocol: The effects of 3-(3,4-dimethoxy-phenyl)-3-(1-oxo-1,3-dihydro-isoindol-2-yl)-propionamide on cardiovascular and respiratory function are investigated in anesthetized dogs. Two groups of Beagle dogs (2/sex/group) are used. One group receives three doses of vehicle only and the other receives three ascending doses of 3-(3,4-dimethoxy-phenyl)-3-(1-oxo-1,3-dihydro-isoindol-2-yl)-propionamide (400, 800, and 1,200 mg/kg/day). In all cases, doses of 3-(3,4-dimethoxy-phenyl)-3-(1-oxo-1,3-dihydro-isoindol-2-yl)-propionamide or vehicle are successively administered via infusion through the jugular vein separated by intervals of at least 30 minutes.
# PDE4 = experiment: Inhibition of PDE4 enzyme purified from U937 human monocytic cells; type: biochemical; details: 1 μM cAMP, 30 min at 30° C.
# Protocol: PDE4 enzyme was purified from U937 human monocytic cells by gel filtration chromatography as previously described (Muller et al. 1998, Bioorg. & Med Chem Lett 8:2669-2674). Phosphodiesterase reactions were carried out in 50 mM Tris HCl pH 7.5, 5 mM MgCl2, 1 μM cAMP, 10 nM [^311)-cAMP for 30 min at 30° C., terminated by boiling, treated with 1 mg/ml snake venom, and separated using AG-1×S ion exchange resin (BioRad) as described (Muller et al. 1998, Bioorg. & Med Chem Lett 8:2669-2674). Reactions consumed less than 15% of available substrate.
# spinal cord contusion = details: cited from earlier work
Compound,IC50 [1] [µM],IC50 [2] [µM],cardiovascular and respiratory changes [3],IC50 (PDE4) [µM],locomotion (spinal cord contusion; combination of rolipram with db-cAMP),axon sparing and myelination (spinal cord contusion; combined with Schwann cell grafts),cAMP levels after spinal cord contusion (spinal cord contusion; rolipram alone)
"COc1ccc(C(CC(N)=O)N2Cc3ccccc3C2=O)cc1OC (stereo not shown) [3-(3,4-dimethoxy-phenyl)-3-(1-oxo-1,3-dihydro-isoindol-2-yl)-propionamide]",16,21,minimal at all doses,15,,,
COc1ccc(C2CNC(=O)C2)cc1OC1CCCC1 (stereo not shown) [rolipram],,,,,improved locomotion,promoted significant supraspinal and proprioceptive axon sparing and myelination,prevented the decrease of cAMP levels
